The text below walks through data of patent US8597904B2, “Pharmaceutical compositions for the treatment of conditions responsive to proteasome inhibition” (priority 2007, dated 2013).

One experiment has as its system Akt/PKB. Kind of experiment: Western blot of Akt/PKB and phosphorylation at Ser473 in SK-N-SH cells. It is filed as cell-based, human. The procedure:
Since Akt/PKB is a well-characterized anti-apoptotic protein, total Akt/PKB levels were measured in treated cells in addition to determining the protein's phosphorylation status at residue Ser473, which is indicative of its activity. SK-N-SH cells were treated with GlbA in the presence or absence of 3-MA, and cell lysates were analyzed for Akt/PKB.
For orientation: In western blotting, separated proteins are transferred to a membrane and probed.

For experiment [1], the system named is SK-N-SH cells. As to the kind of experiment: annexin V assay by flow cytometry. It is filed as cell-based, human. Particulars: 25 μM, 48 hours. The method, then:
SK-N-SH cells at a concentration of 1.0×10^5 cells per ml were seeded in 12-well plates containing 1 ml of culture medium per well. After 24 hours, 10 μl of syringolin A (25 μM final concentration) or an equal volume of sterile water (control) was added per well. Cells were incubated for 48 hours, trypsinized, washed twice in phosphate-buffered saline (PBS) and were counted; 1-2×10^5 cells suspended in 0.1 ml of 1× assay buffer per vial according to the manufacturer's instructions (BD Biosciences, Palo Alto, Calif.). Cells were stained with annexin V-FITC (5 μl) for 15 minutes in the dark, at room temperature. Assay buffer (0.4 ml) was added, and 5000 cells were analyzed using a FACScan flow cytometer (Becton Dickinson, San Jose, Calif.). The […] program was used for data analysis.
Background: In flow cytometry, cells or beads pass a laser one at a time.

For experiment [2], the system named is SK-N-SH cells. Particulars: neuroblastoma (NB) cells, Coleman et al. 2006; cited from earlier work.
In experiment [3] the test system is SK-N-SH cells. As to the kind of experiment: sulphorhodamine B (SRB) cell viability / proliferation assay. It is filed as cell-based, human. Conditions: 48 hours. The text has this:
(§1) The mammalian cell lines used to test the effects of syringolin A were human neuroblastoma (NB) cells with either wild type p53 (line SK-N-SH, provided by the American Type Culture Collection [ATCC], Manassas, Va.; Davidoff, et al. 1992. Oncogene 7:127-133; McKenzie, et al. 1999. Clin. Cancer Res. 5:4199-4207; Tweddle, et al. 2001. Am. J. Pathol. 158:2067-2077), mutant p53 (line LAN-1, cysteine to stop codon at residue 182, provided by Dr. Robert Seeger, University of California, Los Angeles, Calif.; Davidoff, et al. 1992. Oncogene 7:127-133; Tweddle, et al. 2001. Cancer Res. 61:8-13; Tweddle, et al. 2003. Cancer Lett. 197:93-98), or human ovarian cancer cells (line SKOV3, provided by Dr. Bonnie Warn-Cramer, Cancer Research Center of Hawaii). NB cells were maintained in RPMI 1640 (Biosource, Rockville, Md.) containing 10% (v/v) heat-inactivated fetal bovine serum (FBS) (Invitrogen, Carlsbad, Calif.), penicillin (100 IU/ml), and streptomycin (100 μg/ml) as previously described (Wallick, et al. 2005. Oncogene 24:5606-5618). SKOV3 cells were maintained in McCoy's 5A with L-glutamine (Mediatech Inc., Herndon, Va.) and containing 10% (v/v) heat-inactivated fetal bovine serum […] (Invitrogen, Carlsbad, Calif.) and gentamicin ([…]). Cells were seeded 18-24 hours before GlbA or SylA treatment and analyzed after 24 and/or 48 hours. Cell numbers were determined using a haemacytometer in the presence of trypan blue (Fisher Scientific, Pittsburgh, Pa.).
(§2) To then test the effects of syringolin A on proliferation, cells at 0.25-0.5×10^5 cells per ml were seeded in 96-well microtiter plates containing 100 μl of culture medium per well. After 24 hours, syringolin A was added to wells to a final concentration of 0.5 μm to 100 μm. Syringolin was not added to parallel samples of control cells. Cells were incubated for 48 hours, photographed, and the viability of cells (calculated as a percentage of control cell counts) was determined using the sulphorhodamine B (SRB) assay as previously reported (Skehan, et al. 1990. J. Natl. Cancer Inst. 82:1107-1112, which is incorporated herein by reference in its entirety). In brief, cell culture medium was removed from the microtiter plate and adherent cells were fixed with 10% (w/v) trichloracetic acid (TCA) for 30 minutes at room temperature. Following four washes with tap water, 100 μl of SRB (Sigma Chemical Co., St. Louis, Mo.) (0.4 g/100 ml 1% [v/v] glacial acetic acid in water) was added and the plate was then incubated for 30 minutes at room temperature, and rinsed four times with 3% (v/v) glacial acetic acid. After addition of 200 μl of 10 mM […] (not pH adjusted) to each well, the plate was incubated on an orbital shaker for 30 minutes until the SRB was uniformly dissolved. The absorption at a wavelength of 560 nm was read using an HTS 7000 Plus Bioassay Reader or a Victor 3, 1420 Multilabel Counter (PerkinElmer, Inc. Boston, Mass.). To record cell morphology with and without syringolin treatment, photomicrographs were taken of cells in 12-well plates or 96-well plates, in the presence or absence of 25 μM syringolin A, using a Nikon Diaphot inverted microscope (Nikon Corp., Tokyo, Japan) and a Carl Zeiss Axiovert 200M inverted microscope (Carl Zeiss, Goettingen, Germany), both equipped with a digital camera and computer software for image processing. Power of magnification for SK-N-SH, LAN-1, and SKOV3 cells was 20×, and for Rat-1 cells was 10×.

Another experiment has as its system LAN-1 cells. The description is as above. It counts as cell-based, human.
From the text: as §1, §2

Another experiment deals with T1, Papaya latex papain (Carica papaya, UniProt P00784).
T1 construct: Papaya latex papain (Sigma-Aldrich); purchased Sigma-Aldrich; host or cells: papaya latex
T1 sequence (P00784 134-345): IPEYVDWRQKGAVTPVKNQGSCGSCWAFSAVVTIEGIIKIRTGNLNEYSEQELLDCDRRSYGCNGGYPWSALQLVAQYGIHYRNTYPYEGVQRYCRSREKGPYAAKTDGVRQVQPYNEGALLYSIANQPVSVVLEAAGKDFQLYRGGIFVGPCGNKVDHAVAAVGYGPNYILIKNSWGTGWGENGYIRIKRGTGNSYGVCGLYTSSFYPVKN
Kind of experiment: SensoLyte Green Protease Fluorometric Assay, papain inhibition. It counts as biochemical. Particulars: syringolin A up to 500 μM. The method, then:
To test the specificity of syringolin A inhibition of proteasome activities, bovine pancreas trypsin (Pierce) and Papaya latex papain (Sigma-Aldrich) inhibition assays with syringolin A were performed with the SensoLyte™ Green Protease Fluorometric Assay Kit (AnaSpec., San Jose, Calif., USA) according to the instructions of the manufacturer. Reaction volumes of 100 μl contained an enzyme concentration of 200 ng/ml and various amounts of test inhibitors. Protease activity was monitored at 33° C. in a FluoroCount Microplate Fluorometer (FluoroCount, Packard, Canberra, Australia) using 485 nm excitation and a 550 nm emission filters.

For the compound `CCCCCCC/C=C/C=C/C(=O)N[C@H](C(=O)N[C@H]1C[C@@H](O)CCNC(=O)/C=C/[C@H](C)NC1=O)[C@@H](C)O` [glidobactin A], in the experiment on Akt/PKB (GlbA treatment), the “Akt/PKB phosphorylation at Ser473” value was “phosphorylated at Ser473” and the “total Akt/PKB levels” value is listed as “slight decrease”. Also, in the experiment on Akt/PKB (GlbA with 3-MA pre-treatment), the “Akt/PKB phosphorylation at Ser473 after pre-treatment with 3-MA” value is listed as “prevented”.
In the case of `CC(C)[C@H](NC(=O)N[C@H](C(=O)N[C@H]1/C=C/CCNC(=O)/C=C/[C@H](C(C)C)NC1=O)C(C)C)C(=O)O` [syringolin A], in the experiment with SK-N-SH cells [1], the “annexin V binding” value was “strongly bound annexin V”. Besides, in the experiment with SK-N-SH cells [2], the “reaction with Annexin V” value is listed as “strongly react with Annexin V”. Further, the cell morphology result in the experiment with SK-N-SH cells [3] (25 μM) is on record as “induced significant morphological changes”; in the experiment on LAN-1 cells (LAN-1, 25 μM, 48 hours), “induced significant morphological changes”. The cell viability result in the experiment on SK-N-SH cells [3] (0.5 to 100 μm, dose-dependent) was “reduced the cell viability”; in the experiment with LAN-1 cells (LAN-1, 0.5 to 100 μm, 48 hours, dose-dependent), “reduced the cell viability”. Besides, the IC50 with SK-N-SH cells [3] (Homo sapiens, SRB assay, read-out: IC50 (inhibitor concentration at which cell proliferation rate is reduced by 50% relative to control)) lay within 20 to 25 µM; with LAN-1 cells (Homo sapiens, LAN1, LAN-1, 48 hours, SRB assay, read-out: IC50 (inhibitor concentration at which cell proliferation rate is reduced by 50% relative to control)), 20 to 25 µM. In addition, the papain activity result at Papaya latex papain is “not affected”.
